Laboratory results as given in patent US11179380B2, “Compounds and compositions for use in treating psoriasis” (SOLVOTRIN THERAPEUTICS LTD, priority 2017, dated 2021).

Key:
physchem = settings: for Rm: calculated from Rf
Description: The partition coefficient (P) is used to describe the lipophilicity of a drug. It is defined as the ratio of equilibrium concentrations of a drug in an organic phase (Corg) and an aqueous phase (Caq).
Most commonly the organic solvent is n-octanol and the other solvent is water. Hydrophobic molecules will have a high P value while hydrophilic molecules will have a low P value.
Rm values were calculated from Rf values that were obtained at three different mobile phase compositions (40, 50 and 60% MeOH in water).
The Rm value was calculated using the following equation: […]
The theoretical Rm value at 0% organic modifier was calculated by extrapolating from the calibration curves that were obtained. These values were then correlated to the literature log P of two reference compounds (methyl benzoate and paracetamol).

Aldara-treated mice = test: Aldara-induced model of psoriasis in mice, clinical scoring (PASI); type: in vivo, mice (C57BL/6J)
Description: Specific Pathogen-Free female C57BL/6J strain mice, 6-8 weeks of age, were obtained from a commercial supplier and bred in-house (JAX, Charles River). Mice were fed irradiated diet and housed in individually ventilated cages (Tecniplast, UK) under positive pressure. All animal experiments were performed in compliance with the Health Products Regulatory Authority and approved by the Trinity College Dublin's BioResources ethical review board.
The Aldara-induced model of psoriasis was used (Flutter and Nestle, 2013; Morwietz, 2015; Russell et al., 2013; van der Fits et al., 2009). The dorsal skin of mice was shaved and depilated on day −1. Mice were that were in the telogen phase (resting phase) of the hair cycle were chosen for experiments. Mice with visual skin damage from shaving were excluded. Mice were then randomly divided into groups for treatment with topical application of vehicle (white petroleum jelly) or Solvotrin test compounds, prepared in white petroleum jelly. On day 0, mice were scored for disease signs, as per below. After which 62.5 mg of Aldara™ cream (5% Imiquimod; MEDA Pharmaceuticals) was applied to a defined area of the shaved dorsal skin surface. Thirty minutes after the Aldara application, test compounds or vehicle was applied to the dorsal flank, to cover the entire Aldara-challenged surface, with an even layer of the white petroleum. This process was repeated for a further 5 days. Mice were scored daily. On day 6 the mice were euthanized for tissue collection.
The skin of mice was scored for signs of psoriasis-like inflammation for a total of 7 days, (i.e. days 0-6), as described (van der Fits et al., 2009). Mice were scored according to 3 parameters: erythema (the redness of skin); thickening of the skin; and scaling (dryness and flaking of the skin). For each parameter, the mice were scored on a scale from 0-4. Mice with no pathology were scored 0. Mice with mild pathology scored 1. […] The total, or Psoriasis Area and Severity Index (PASI), score was the cumulative score of all three parameters. Therefore for each mouse studied the PASI score can range between 0 to 12.
Power calculations on data from previous studies have shown that a sample size of at least 6 will detect significant difference (P<0.05) in PASI scores between groups. ANOVA and Dunnett Multiple Comparison Test determined statistical differences between multiple groups. Two tailed Student's t-test was used to compare statistical differences between two groups.
Unless otherwise specified percentage concentration of a test compound in a composition refers to the weight percent of said test compound in the composition. For example, application of 2% compound X, means application of a composition comprising 2 weight percent of compound X.

[1] = test system: Peripheral Blood Mononuclear Cells (PBMCs); test: Cytokine-expressing cells in stimulated PBMC (anti-CD3, PMA and ionomycin), flow cytometry; type: cell-based, human
Description: PBMC were isolated from leukocyte-enriched buffy coats obtained from anonymous healthy donors with consent from the Irish Blood Transfusion Service, St James' Hospital, Dublin, Ireland. PBMC were pre-treated with test compounds or a vehicle control at the indicated concentrations for 6 hours prior to stimulation by anti-CD3 for 4 days and re-stimulated with PMA and ionomycin for 6 hours. Thereafter cells were counted using flow cytometry.

Primary human DC = test: Cytokine concentrations in LPS-stimulated monocyte-derived dendritic cells, ELISA; type: cell-based; settings: LPS 24 hours
Description: Primary human DC were produced from CD14+ monocytes isolated from healthy human PBMC via magnetic cell sorting. Monocyte-derived DC were pre-treated with test compounds or a vehicle control for 6 hours prior to stimulation by LPS for 24 hours. Cytokine concentrations in cell supernatants were determined by ELISA (eBiosciences).

normal healthy skin = test: Assessment of erythema and itchiness after topical application to shaved forearm; type: in vivo
Description: Test article dispersed in petroleum jelly was applied to a 2×2 cm patch of shaved forearm (n=3). At specified time intervals the degree of erythema was recorded by blinded observers on a scale of 1-4 (n=3). Itchiness was observed by scratching behaviour also by blinded observers on a scale of 1-4. The time course of erythema resolution was recorded at 30 minute intervals.

[2] = activated T-cells, various concentrations

Structure (SMILES): CC(=O)Oc1ccccc1C(=O)O[C@H]1COC2C1OC[C@H]2OC(=O)c1cccnc1 (stereo partly drawn) [ST0702, Isosorbide-2-aspirinate-5-nicotinate]
- chromatographic logP (physchem): 4.1
- Rf (physchem; 40% MeOH in water): 0.0460
- Rm (physchem; 40% MeOH in water): 1.3168
- Rf (physchem; 50% MeOH in water): 0.1200
- Rm (physchem; 50% MeOH in water): 0.8653
- Rf (physchem; 60% MeOH in water): 0.2730
- Rm (physchem; 60% MeOH in water): 0.4254
- Extrapolated Rm (y value) (physchem; theoretical Rm at 0% organic modifier): 3.0977
- PASI scores (Aldara-treated mice; 0.5% topical, relative to Vehicle-treated mice): significantly lower on days 3 (P<0.05) and 4 (P<0.01)
- erythema score (Aldara-treated mice; 0.5 or 5% topical, vs Vehicle): significant, and dose-dependent, reductions
- scaling score (Aldara-treated mice; 0.5 or 5% topical, vs Vehicle): significant, and dose-dependent, reductions
- skin thickness score (Aldara-treated mice; 0.5 or 5% topical, vs Vehicle): significant, and dose-dependent, reductions
- efficacy in the ALDARA model (Aldara-treated mice; 2%): effective
- skin inflammation (PASI score) (Aldara-treated mice; higher dose (5%) topical, vs Vehicle): reduced skin inflammation on days 3-5 (P<0.01-0.001)
- progressive development of psoriasis-like skin inflammation (Aldara-treated mice; topical in white petroleum jelly, two separate experiments (3%; 0.5 or 5%), vs Vehicle): significantly (P<0.05-0.001) reduced
- number of IL-17 expressing cells [1]: inhibitory effect
- percentage of TNF-alpha expressing cells ([1]; 50 μM): reduced
- GM-CSF [1, 2]: appreciable effect
- IL-2 [1, 2]: not to have any appreciable effect
- percentage of IFN-gamma expressing cells ([1]; in comparison to control): significantly reduced
- IL-10 (Primary human DC): no appreciable effect
- cumulative irritancy score (irritancy/erythema) (normal healthy skin; 2%): did not cause irritancy/erythema
- erythema/irritation (normal healthy skin; 2% in petroleum jelly, 1 hour after application): did not cause erythema/irritation
- temporal erythema response (normal healthy skin; 5% in petroleum jelly): resolved rapidly
